Results as given in US9416347B2, “Method of treating bacterial contamination in a microalgae culture with pH shock” (Heliae Development LLC, priority 2014, dated 2016).
Like-named read-outs stand apart in the source and are kept apart here.

Key:
[1] = in water; cited from earlier work
[2] = system: Chlorella sp.; conditions: culture at 1,029 mg/L acetate, pH 3.5 for 15 minutes, returned to 7.5 with 2 M NaOH
Description: The pH treated culture samples were maintained at the culture pH of 3.5 for 15 minutes before returning the culture pH to 7.5 by adding 2 M NaOH.
The pH treatment was applied directly into the culture, without previous concentration or subsequent dilution through inoculation into a fresh media. All cultures were incubated with shaking at 100 rpm in 5% carbon dioxide and 25° C. […] 100 μM photon/m^2 s of light was also provided to create mixotrophic growth conditions. The cultures were monitored for 4 days (96 hours with dry weight samples taken at 0, 48, and 96 hours). Residual acetate analyses were carried at the end of the experiment.

[3] = system: Chlorella sp.; conditions: pH lowered from about 7.5 to 3.5 for 15 minutes, raised back with 5M NaOH
Description: The first 400 ml culture was maintained as an untreated control at a pH of about 7.5. […] The pH treatments were applied directly to the cultures, without previous concentration of the microalgae or subsequent dilution through inoculation into fresh culture media. All cultures were incubated with shaking at 100 rpm in 5% carbon dioxide and 25° C. […] 100 μM photon/m^2 s of light was also provided to create mixotrophic growth conditions. The cultures were monitored for 4 days (96 hours with dry weight samples taken at 0, 48, and 96 hours). Live bacteria count samples were taken at 0 and 48 hours, and quantified using aerobic colony forming units (CFU) obtained from plate counts utilizing Petrifilm available from 3M (St. Paul, Minn.). A bacteria to microalgae ratio was also quantified using guava flow cytometry.

[4] = system: Chlorella sp.
Description: 100 mL volume cultures were prepared in 250 mL flasks, and cultured at a temperature of 25° C., a shaking frequency of 100 rpm, and a light intensity of 100 μM photon/m^2 s for 7 days (168 hours). The cultures were inoculated into two times BG-11 culture media at a cell density of 1.12 g/L. The different treatments of sodium acetate consisted of concentrations of 0, 2.5, 5, 7.5, 10, 20, 30, and 40 g/L. Samples were taken every 24 hours to measure the cell dry weights (g/L) of the cultures.

[5] = system: live bacteria in mixotrophic culture of Chlorella; conditions: for Total live bacteria count: pH lowered to 3.5 with hydrochloric acid
Description: The 2 L sample was split into equal 1 L cultures in flasks, and incubated at 25° C. and 100 rpm (shaking) for 24 hours to allow metabolization of any residual acetate in the cultures. The two cultures were then blended together and then separated into equal 1 L cultures to ensure homogeneity in the two cultures. […] Samples were taken from both cultures to quantify the initial live bacteria count and subsequent counts using aerobic colony forming units (CFU) obtained from plate counts utilizing Petrifilm available from 3M (St. Paul, Minn.).

CC(=O)C(=O)O [pyruvic acid]
pKa [1]: about 2.5

O=C(O)CC(O)C(=O)O (centres unmarked) [malic acid]
pKa [1]: about 3.4

CC(=O)O [Acetic acid, acetic acid]
Cell Dry Weight ([2]; 0 h): 0.80 ± 0.02 g/L
Cell Dry Weight ([2]; 48 h): 0.78 ± 0.06 g/L
Cell Dry Weight ([2]; 96 h): 0.89 ± 0.01 g/L
cell dry weight ([3]; 0 h): 0.76 ± 0.00 g/L
cell dry weight ([3]; 48 h): 1.73 ± 0.04 g/L
cell dry weight ([3]; 96 h): 3.46 ± 0.09 g/L

CCCCCCCCCCCCCCCC(=O)O [palmitic acid]
pKa [1]: about 4.7

CC(=O)[O-].[Na+] [sodium acetate]
Growth of Chlorella ([4]; 2.5 g/L sodium acetate): 0.620 g/L day
Cell dry weights of treatments by Concentration of Sodium Acetate ([4]; 2.5 g/L sodium acetate, 0 h): 0.12 g/L
Cell dry weights of treatments by Concentration of Sodium Acetate ([4]; 2.5 g/L sodium acetate, 24 h): 0.23 g/L
Cell dry weights of treatments by Concentration of Sodium Acetate ([4]; 2.5 g/L sodium acetate, 48 h): 0.85 g/L
Cell dry weights of treatments by Concentration of Sodium Acetate ([4]; 2.5 g/L sodium acetate, 72 h): 1.10 g/L
Cell dry weights of treatments by Concentration of Sodium Acetate ([4]; 2.5 g/L sodium acetate, 144 h): 2.72 g/L
Cell dry weights of treatments by Concentration of Sodium Acetate ([4]; 2.5 g/L sodium acetate, 168 h): 3.23 g/L
Growth of Chlorella ([4]; 5 g/L sodium acetate): 0.065 g/L day
Cell dry weights of treatments by Concentration of Sodium Acetate ([4]; 5 g/L sodium acetate, 0 h): 0.12 g/L
Cell dry weights of treatments by Concentration of Sodium Acetate ([4]; 5 g/L sodium acetate, 24 h): 0.19 g/L
Cell dry weights of treatments by Concentration of Sodium Acetate ([4]; 5 g/L sodium acetate, 48 h): 0.25 g/L
Cell dry weights of treatments by Concentration of Sodium Acetate ([4]; 5 g/L sodium acetate, 72 h): 0.55 g/L
Cell dry weights of treatments by Concentration of Sodium Acetate ([4]; 5 g/L sodium acetate, 144 h): 1.89 g/L
Cell dry weights of treatments by Concentration of Sodium Acetate ([4]; 5 g/L sodium acetate, 168 h): 2.41 g/L
Cell dry weights of treatments by Concentration of Sodium Acetate ([4]; 7.5 g/L sodium acetate, 0 h): 0.12 g/L
Cell dry weights of treatments by Concentration of Sodium Acetate ([4]; 7.5 g/L sodium acetate, 24 h): 0.17 g/L
Cell dry weights of treatments by Concentration of Sodium Acetate ([4]; 7.5 g/L sodium acetate, 48 h): 0.15 g/L
Cell dry weights of treatments by Concentration of Sodium Acetate ([4]; 7.5 g/L sodium acetate, 72 h): 0.13 g/L
Cell dry weights of treatments by Concentration of Sodium Acetate ([4]; 7.5 g/L sodium acetate, 144 h): 0.10 g/L
Cell dry weights of treatments by Concentration of Sodium Acetate ([4]; 7.5 g/L sodium acetate, 168 h): 0.07 g/L
Cell dry weights of treatments by Concentration of Sodium Acetate ([4]; 10 g/L sodium acetate, 0 h): 0.12 g/L
Cell dry weights of treatments by Concentration of Sodium Acetate ([4]; 10 g/L sodium acetate, 24 h): 0.13 g/L
Cell dry weights of treatments by Concentration of Sodium Acetate ([4]; 10 g/L sodium acetate, 48 h): 0.16 g/L
Cell dry weights of treatments by Concentration of Sodium Acetate ([4]; 10 g/L sodium acetate, 72 h): 0.11 g/L
Cell dry weights of treatments by Concentration of Sodium Acetate ([4]; 10 g/L sodium acetate, 144 h): 0.09 g/L
Cell dry weights of treatments by Concentration of Sodium Acetate ([4]; 10 g/L sodium acetate, 168 h): 0.00 g/L
Cell dry weights of treatments by Concentration of Sodium Acetate ([4]; 20 g/L sodium acetate, 0 h): 0.12 g/L
Cell dry weights of treatments by Concentration of Sodium Acetate ([4]; 20 g/L sodium acetate, 24 h): 0.16 g/L
Cell dry weights of treatments by Concentration of Sodium Acetate ([4]; 20 g/L sodium acetate, 48 h): 0.13 g/L
Cell dry weights of treatments by Concentration of Sodium Acetate ([4]; 20 g/L sodium acetate, 72 h): 0.12 g/L
Cell dry weights of treatments by Concentration of Sodium Acetate ([4]; 20 g/L sodium acetate, 144 h): 0.07 g/L
Cell dry weights of treatments by Concentration of Sodium Acetate ([4]; 20 g/L sodium acetate, 168 h): 0.00 g/L
Cell dry weights of treatments by Concentration of Sodium Acetate ([4]; 30 g/L sodium acetate, 0 h): 0.12 g/L
Cell dry weights of treatments by Concentration of Sodium Acetate ([4]; 30 g/L sodium acetate, 24 h): 0.14 g/L
Cell dry weights of treatments by Concentration of Sodium Acetate ([4]; 30 g/L sodium acetate, 48 h): 0.11 g/L
Cell dry weights of treatments by Concentration of Sodium Acetate ([4]; 30 g/L sodium acetate, 72 h): 0.09 g/L
Cell dry weights of treatments by Concentration of Sodium Acetate ([4]; 30 g/L sodium acetate, 144 h): 0.08 g/L
Cell dry weights of treatments by Concentration of Sodium Acetate ([4]; 30 g/L sodium acetate, 168 h): 0.00 g/L
Cell dry weights of treatments by Concentration of Sodium Acetate ([4]; 40 g/L sodium acetate, 0 h): 0.12 g/L
Cell dry weights of treatments by Concentration of Sodium Acetate ([4]; 40 g/L sodium acetate, 24 h): 0.11 g/L
Cell dry weights of treatments by Concentration of Sodium Acetate ([4]; 40 g/L sodium acetate, 48 h): 0.09 g/L
Cell dry weights of treatments by Concentration of Sodium Acetate ([4]; 40 g/L sodium acetate, 72 h): 0.10 g/L
Cell dry weights of treatments by Concentration of Sodium Acetate ([4]; 40 g/L sodium acetate, 144 h): 0.09 g/L
Cell dry weights of treatments by Concentration of Sodium Acetate ([4]; 40 g/L sodium acetate, 168 h): 0.00 g/L
tolerance limit for this strain of Chlorella ([4]; as restated in Example 10): 7500 mg/L
Growth of Chlorella ([4]; concentrations of 7.5 g/L and higher): did not show any growth
acetate concentration tolerance for Chlorella ([4]; mixotrophic flask culture, 7 days): approximately 7.5 g/L
live bacteria counts (below detection) ([5]; 2.5 g/L sodium acetate, pH 3.5 with HCl, after 60 minutes): < 1,000 CFU/ml
live bacteria ([5]; 2.5 g/L sodium acetate, pH 3.5 with HCl, after 180 minutes): no measurable live bacterium
Total live bacteria count ([5]; 2.5 g/L sodium acetate, 0 min): 5.00E+06 CFU
Total live bacteria count ([5]; 2.5 g/L sodium acetate, 5 min): 8.00E+04 CFU
Total live bacteria count ([5]; 2.5 g/L sodium acetate, 15 min): 4.00E+04 CFU
Total live bacteria count ([5]; 2.5 g/L sodium acetate, 30 min): none detected
Total live bacteria count ([5]; 2.5 g/L sodium acetate, 60 min): 1.00E+03 CFU
Total live bacteria count ([5]; 2.5 g/L sodium acetate, 180 min): 1.00E+03 CFU
reduction in live bacteria ([5]; sodium acetate present and treated with second acid, after 60 minutes): 3.5 order of magnitude
